According to US12195482B1 (Arcus Biosciences, Inc., priority 2022, dated 2025):

Assays:
p-AXL = target: T1, p-AXL (Homo sapiens, UniProt P30530); experiment: Axl phosphorylation inhibition ELISA in HEK293T cells transfected with NanoLuc-tagged AXL; assay type: cell-based; conditions: 1 h compound incubation, media (OptiMEM)
T1 construct: expressed in transfected cells; host or cells: HEK293T
T1 sequence (P30530 26-894): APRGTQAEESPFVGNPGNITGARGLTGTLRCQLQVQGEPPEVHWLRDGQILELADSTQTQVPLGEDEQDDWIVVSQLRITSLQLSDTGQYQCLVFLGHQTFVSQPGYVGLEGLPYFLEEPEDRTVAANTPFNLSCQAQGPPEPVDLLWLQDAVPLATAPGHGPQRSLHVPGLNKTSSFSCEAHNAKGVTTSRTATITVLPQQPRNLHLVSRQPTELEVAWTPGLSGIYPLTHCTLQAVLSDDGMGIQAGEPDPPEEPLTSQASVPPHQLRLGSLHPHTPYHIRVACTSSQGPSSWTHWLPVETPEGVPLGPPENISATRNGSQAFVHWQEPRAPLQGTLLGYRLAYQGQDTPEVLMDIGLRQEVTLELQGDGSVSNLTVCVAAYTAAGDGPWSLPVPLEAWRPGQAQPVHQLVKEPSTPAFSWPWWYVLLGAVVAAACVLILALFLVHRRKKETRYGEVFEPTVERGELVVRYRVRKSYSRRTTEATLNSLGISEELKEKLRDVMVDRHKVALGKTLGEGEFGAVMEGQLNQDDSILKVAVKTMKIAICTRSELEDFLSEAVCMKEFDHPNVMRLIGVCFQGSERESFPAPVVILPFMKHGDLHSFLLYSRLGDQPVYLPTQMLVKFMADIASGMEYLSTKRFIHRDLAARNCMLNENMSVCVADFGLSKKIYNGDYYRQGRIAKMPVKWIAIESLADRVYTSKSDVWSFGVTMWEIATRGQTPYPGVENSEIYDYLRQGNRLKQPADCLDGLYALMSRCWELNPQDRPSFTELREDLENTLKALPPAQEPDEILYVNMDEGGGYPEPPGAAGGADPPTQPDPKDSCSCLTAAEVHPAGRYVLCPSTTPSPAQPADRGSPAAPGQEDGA
Outline: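 HEK293T cells transiently transfected one day earlier with NanoLuc-tagged AXL were exposed to 22-point 2-fold compound dilutions for 1 h at 37° C (70,000 cells/well), then lysed. Lysates captured on anti-phospho-tyrosine coated plates for 2 h; bound p-AXL read by NanoLuc luminescence; IC50 from 4-parameter logistic fit.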

Axl = target: T2, Axl (Homo sapiens, UniProt P30530); experiment: Biochemical potency, HTRF KinEASE-TK kinase assay; set-up: purchased Invitrogen; conditions: 5 nM AXL, 700 μM ATP
T2 sequence (P30530 26-894): T1 sequence (P30530 26-894)
Outline: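 HTRF 665/620 readout after a 2 h RT kinase reaction (final 700 μM ATP, 800 nM biotinylated TK substrate, 1% DMSO, HEPES pH 7.4 buffer) gave percent activity. Final enzyme was 5 nM for AXL, 1 nM for TYRO3 or MER, each preincubated 1 h with compound.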

| Structure (SMILES) | IC50 (p-AXL) | IC50 (Axl) |
| --- | --- | --- |
| c1cc(-n2cc(-c3c[nH]c4ncc(-c5ccc6c(c5)CC[C@@H](N5C7COCC5C7)CC6)cc34)cn2)ccn1 [Example 45, 6-[(7S)-2-{3-[1-(Pyridin-4-yl)-1H-pyrazol-4-yl]-1H-pyrrolo[2,3-b]pyridin-5-yl}-6,7,8,9-tetrahydro-5H-benzo[7]annulen-7-yl]-3-oxa-6-azabicyclo[3.1.1]heptane] | 100 to 1000 nM | < 100 nM |
| Cc1cnc(-c2ccc(-c3c[nH]c4ncc(-c5ccc6c(c5)CC[C@@H](N5CCCC5)CC6)cc34)cc2)c(C)n1 [Example 59, 3,5-Dimethyl-2-(4-{5-[(7S)-7-(pyrrolidin-1-yl)-6,7,8,9-tetrahydro-5H-benzo[7]annulen-2-yl]-1H-pyrrolo[2,3-b]pyridin-3-yl}phenyl)pyrazine] | 100 to 1000 nM | < 100 nM |
| Cc1cnc(-c2ccc(-c3c[nH]c4ncc(-c5ccc6c(c5)CC[C@@H](N5C7COCC5C7)CC6)cc34)cc2)c(C)n1 [Example 50, 6-[(7S)-2-{3-[4-(3,5-Dimethylpyrazin-2-yl)phenyl]-1H-pyrrolo[2,3-b]pyridin-5-yl}-6,7,8,9-tetrahydro-5H-benzo[7]annulen-7-yl]-3-oxa-6-azabicyclo[3.1.1]heptane] | < 100 nM | < 100 nM |
| C[C@@H]1CCCN1[C@@]1(C)CCc2ccc(-c3cnc4[nH]nc(-c5ccc(-c6ncco6)cc5)c4c3)cc2CC1 [Example 90, 2-(4-{5-[(7S)-7-Methyl-7-[(2R)-2-methylpyrrolidin-1-yl]-6,7,8,9-tetrahydro-5H-benzo[7]annulen-2-yl]-2H-pyrazolo[3,4-b]pyridin-3-yl}phenyl)-1,3-oxazole] | < 100 nM | < 100 nM |
| Cc1cccnc1-c1ccc(-c2c[nH]c3ncc(-c4ccc5c(c4)CC[C@@H](N4C6COCC4C6)CC5)cc23)cc1 [Example 1, 6-[(7S)-2-{3-[4-(3-Methylpyridin-2-yl)phenyl]-1H-pyrrolo[2,3-b]pyridin-5-yl}-6,7,8,9-tetrahydro-5H-benzo[7]annulen-7-yl]-3-oxa-6-azabicyclo[3.1.1]heptane] | < 100 nM | < 100 nM |
| c1cc(-c2ccc(-c3c[nH]c4ncc(-c5ccc6c(c5)CC[C@@H](N5C7COCC5C7)CC6)cc34)cc2)ccn1 [Example 41, 6-[(7S)-2-{3-[4-(Pyridin-4-yl)phenyl]-1H-pyrrolo[2,3-b]pyridin-5-yl}-6,7,8,9-tetrahydro-5H-benzo[7]annulen-7-yl]-3-oxa-6-azabicyclo[3.1.1]heptane] | 100 to 1000 nM | < 100 nM |
| Clc1cccnc1-c1ccc(-c2c[nH]c3ncc(-c4ccc5c(c4)CC[C@@H](N4C6COCC4C6)CC5)cc23)cc1 [Example 43, 6-[(7S)-2-{3-[4-(3-Chloropyridin-2-yl)phenyl]-1H-pyrrolo[2,3-b]pyridin-5-yl}-6,7,8,9-tetrahydro-5H-benzo[7]annulen-7-yl]-3-oxa-6-azabicyclo[3.1.1]heptane] | – | < 100 nM |
| Cc1cnc(-c2ccc(-c3c[nH]c4ncc(-c5ccc6c(c5)CC[C@@](C)(N5CCC[C@H]5C)CC6)cc34)cc2)c(C)n1 [Example 57, 3,5-Dimethyl-2-(4-{5-[(7S)-7-methyl-7-[(2R)-2-methylpyrrolidin-1-yl]-6,7,8,9-tetrahydro-5H-benzo[7]annulen-2-yl]-1H-pyrrolo[2,3-b]pyridin-3-yl}phenyl)pyrazine] | < 100 nM | < 100 nM |
| Cc1cc(C)c(-c2ccc(-c3n[nH]c4ncc(-c5ccc6c(c5)CC[C@@](C)(N5CCC[C@H]5C)CC6)cc34)cc2)nn1 [Example 78, 4,6-Dimethyl-3-(4-{5-[(7S)-7-methyl-7-[(2R)-2-methylpyrrolidin-1-yl]-6,7,8,9-tetrahydro-5H-benzo[7]annulen-2-yl]-1H-pyrazolo[3,4-b]pyridin-3-yl}phenyl)pyridazine] | < 100 nM | < 100 nM |
| c1ccc(-c2ccc(-c3c[nH]c4ncc(-c5ccc6c(c5)CC[C@@H](N5C[C@@H]7C[C@H]5CO7)CC6)cc34)cc2)nc1 [Example 33, (1S,4S)-5-[(7S)-3-[3-(4-Pyridin-2-ylphenyl)-1H-pyrrolo[2,3-b]pyridin-5-yl]-6,7,8,9-tetrahydro-5H-benzo[7]annulen-7-yl]-2-oxa-5-azabicyclo[2.2.1]heptane] | 100 to 1000 nM | < 100 nM |
| Cc1ccnnc1-c1ccc(-c2c[nH]c3ncc(-c4ccc5c(c4)CC[C@@H](N4C6COCC4C6)CC5)cc23)cc1 [Example 49, 6-[(7S)-2-{3-[4-(4-Methylpyridazin-3-yl)phenyl]-1H-pyrrolo[2,3-b]pyridin-5-yl}-6,7,8,9-tetrahydro-5H-benzo[7]annulen-7-yl]-3-oxa-6-azabicyclo[3.1.1]heptane] | < 100 nM | < 100 nM |
| Cc1cncnc1-c1ccc(-c2c[nH]c3ncc(-c4ccc5c(c4)CC[C@@H](N4C6COCC4C6)CC5)cc23)cc1 [Example 47, 6-[(7S)-2-{3-[4-(5-Methylpyrimidin-4-yl)phenyl]-1H-pyrrolo[2,3-b]pyridin-5-yl}-6,7,8,9-tetrahydro-5H-benzo[7]annulen-7-yl]-3-oxa-6-azabicyclo[3.1.1]heptane] | < 100 nM | < 100 nM |
| COc1ccnc(-c2ccc(-c3c[nH]c4ncc(-c5ccc6c(c5)CC[C@@H](N5C7COCC5C7)CC6)cc34)cc2)c1C [Example 86, 6-[(7S)-3-[3-[4-(4-Methoxy-3-methylpyridin-2-yl)phenyl]-1H-pyrrolo[2,3-b]pyridin-5-yl]-6,7,8,9-tetrahydro-5H-benzo[7]annulen-7-yl]-3-oxa-6-azabicyclo[3.1.1]heptane] | 100 to 1000 nM | < 100 nM |
| Cc1nncn1-c1ccc(-c2n[nH]c3ncc(-c4ccc5c(c4)CC[C@@H](N4C6COCC4C6)CC5)cc23)cc1 [Example 11, 6-[(7S)-2-{3-[4-(3-Methyl-4H-1,2,4-triazol-4-yl)phenyl]-1H-pyrazolo[3,4-b]pyridin-5-yl}-6,7,8,9-tetrahydro-5H-benzo[7]annulen-7-yl]-3-oxa-6-azabicyclo[3.1.1]heptane] | – | < 100 nM |
| c1cncc(-c2ccc(-c3n[nH]c4ncc(-c5ccc6c(c5)CC[C@@H](N5C7COCC5C7)CC6)cc34)cc2)c1 [Example 157, 6-[(7S)-2-{3-[4-(Pyridin-3-yl)phenyl]-2H-pyrazolo[3,4-b]pyridin-5-yl}-6,7,8,9-tetrahydro-5H-benzo[7]annulen-7-yl]-3-oxa-6-azabicyclo[3.1.1]heptane] | – | < 100 nM |
| Fc1cc(-c2c[nH]c3ncc(-c4ccc5c(c4)CC[C@@H](N4C6COCC4C6)CC5)cc23)ccc1-c1ccccn1 [Example 40, 6-[(7S)-2-{3-[3-Fluoro-4-(pyridin-2-yl)phenyl]-1H-pyrrolo[2,3-b]pyridin-5-yl}-6,7,8,9-tetrahydro-5H-benzo[7]annulen-7-yl]-3-oxa-6-azabicyclo[3.1.1]heptane] | – | < 100 nM |
| COc1cc(-c2n[nH]c3ncc(-c4ccc5c(c4)CC[C@@H](N4C6COCC4C6)CC5)cc23)ccc1-c1ccccn1 [Example 160, 6-[(7S)-2-{3-[3-Methoxy-4-(pyridin-2-yl)phenyl]-2H-pyrazolo[3,4-b]pyridin-5-yl}-6,7,8,9-tetrahydro-5H-benzo[7]annulen-7-yl]-3-oxa-6-azabicyclo[3.1.1]heptane] | – | < 100 nM |
| COc1cc(-c2c[nH]c3ncc(-c4ccc5c(c4)CC[C@@H](N4C6COCC4C6)CC5)cc23)ccc1-c1ccccn1 [Example 161, 6-[(7S)-2-{3-[3-Methoxy-4-(pyridin-2-yl)phenyl]-1H-pyrrolo[2,3-b]pyridin-5-yl}-6,7,8,9-tetrahydro-5H-benzo[7]annulen-7-yl]-3-oxa-6-azabicyclo[3.1.1]heptane] | – | < 100 nM |
| Fc1cccnc1-c1ccc(-c2c[nH]c3ncc(-c4ccc5c(c4)CC[C@@H](N4C6COCC4C6)CC5)cc23)cc1 [Example 42, 6-[(7S)-2-{3-[4-(3-Fluoropyridin-2-yl)phenyl]-1H-pyrrolo[2,3-b]pyridin-5-yl}-6,7,8,9-tetrahydro-5H-benzo[7]annulen-7-yl]-3-oxa-6-azabicyclo[3.1.1]heptane] | – | < 100 nM |
| COc1cccc(-c2ccc(-c3n[nH]c4ncc(-c5ccc6c(c5)CC[C@@H](N5C7COCC5C7)CC6)cc34)cc2)n1 [Example 162, 6-[(7S)-2-{3-[4-(6-Methoxypyridin-2-yl)phenyl]-2H-pyrazolo[3,4-b]pyridin-5-yl}-6,7,8,9-tetrahydro-5H-benzo[7]annulen-7-yl]-3-oxa-6-azabicyclo[3.1.1]heptane] | – | < 100 nM |
